Experimental data from patent US7759350B2, “Pyrimidine carboxamides” (Orchid Research Laboratories Ltd., priority 2005, dated 2010).

What was measured:
IL-6 = assay: In vitro measurement of IL-6 in human PBMC; format: cell-based; conditions: LPS; for inhibition at 10 µM: Conc. 10 μM
Description: (§1) In vitro Measurement of Interleukin-6 (IL-6) & Interleukin-1β (IL1β)
(§2) This assay determines the effect of test compounds on the production of IL-6 and IL1β in human PBMC (Physiol. Res. 52: 593-598, 2003). Compounds were tested for their ability to inhibit the activity of IL-6 and IL1β in human PBMC. PBMC were isolated from blood using BD Vacutainer CPT™ Cell preparation tube (BD Bio Science) and suspended in RPMI medium. The test compounds were preincubated with PBMC (0.5 million/incubation well) for 15 minutes at 37° C. and then stimulated with Lipopolysaccharide (Escherichia coli: B4; 1 μg/ml) for 18 hours at 37° C. in 5% CO2. The levels of IL-6 and IL1β in cell culture medium were estimated using enzyme linked Immunosorbent assay performed in a 96 well format as per the procedure of the manufacturer (R&D Systems, Inc. 614 McKinley Place Nebr., Minneapolis, Minn. 55413, USA).

TNF-α = assay: In vitro measurement of TNF-α in human PBMC; format: cell-based; conditions: LPS
Description: In Vitro Measurement of Tumor Necrosis Factor Alpha (TNF-α)
This assay determines the effect of test compounds on the production of TNF-α in human Peripheral Blood Mononuclear Cells (PBMC). Compounds were tested for their ability to inhibit the activity of TNF-α in human PBMC. PBMC were isolated from blood (from healthy volunteers) using BD Vacutainer CPT™ (Cell preparation tube, BD Bio Science) and suspended in RPMI medium (Physiol. Res. 52; 593-598, 2003). The test compounds were pre-incubated with PBMC (0.5 million/incubation well) for 15 minutes at 37° C. and then stimulated with Lipopolysaccharide (Escherichia coli: B4; 1 μg/ml) for 18 hours at 37° C. in 5% CO2. The levels of TNF-α in the cell culture medium were estimated using enzyme linked Immunosorbent assay performed in a 96 well format as per the procedure of the manufacturer (R&D Systems, Inc. 614 McKinley Place Nebr., Minneapolis, Minn. 55413, USA).

IL-1β = assay: In vitro measurement of IL-1β in human PBMC; format: cell-based; conditions: LPS
Description: as §1, §2

HCT116 = assay: Anti-cancer screen (MTT), HCT116; format: cell-based; conditions: Homo sapiens, HCT-116, 48 hours
Description: (§3) Experimental drugs are screened for anti-cancer activity in three cell lines for their GI50, TGI and LC50 values (using five concentrations for each compound). The cell lines are maintained in DMEM containing 10% fetal bovine serum. 96 well microtiter plates are inoculated with cells in 100 μL for 24 h at 37° C., 5% CO2, 95% air and 100% relative humidity. 5000 HCT116 cells/well, 5000 NCIH460 cells/well, 10000 U251 cells/well and 5000 MDAMB231 cells/well are plated. A separate plate with these cell lines is also inoculated to determine cell viability before the addition of the compounds (T0).
(§4) Following 24 hours incubation, experimental drugs are added to the 96 well plates. Each plate contains one of the above cell lines and the following in triplicate: five different concentrations (0.01, 0.1, 1, 10 and 100 μM) of four different compounds, appropriate dilutions of a cytotoxic standard and control (untreated) wells. Compounds are dissolved in dimethylsulfoxide (DMSO) to make 20 mM stock solutions on the day of drug addition and frozen at −20° C. Serial dilutions of these 20 mM stock solutions are made in complete growth medium such that 100 μL of these drug solutions in medium, of final concentrations equaling 0.01, 0.1, 1, 10 and 100 μM can be added to the cells in triplicate. Standard drugs whose anti-cancer activity has been well documented and which are regularly used are doxorubicin and SAHA.
(§5) Cells are incubated with compounds for 48 hours followed by the addition of 10 μL 3-(4,5-Dimethyl-2-thiazolyl)-2,5-diphenyl-2H-tetrazolium (MTT) solution per well and a subsequent incubation at 37° C., 5% CO2, 95% air and 100% relative humidity, protected from light. After 4 hours, well contents are aspirated carefully followed by addition of 150 μL DMSO per well. Plates are agitated to ensure solution of the formazan crystals in dimethylsulphoxide and absorbance read at 570 nm.
(§6) Percent growth is calculated for each compound's concentration relative to the control and zero measurement wells (To; viability right before compound addition). If a test well's O.D. value is greater than the To measurement for that cell line % Growth=(test−zero)/(control−zero)×100
(§7) If a test well's O.D. value is lower than the T0 measurement for that cell line, […]

NCI-H460 = assay: Anti-cancer screen (MTT), NCI-H460; format: cell-based; conditions: Homo sapiens, NCI-H460; 48 hours, MTT
Description: as §3
Following 24 hours incubation, experimental drugs are added to the 96 well plates. […] Compounds are dissolved in dimethylsulfoxide (DMSO) to make 20 mM stock solutions on the day of drug addition and frozen at −20° C. […] Standard drugs whose anti-cancer activity has been well documented and which are regularly used are doxorubicin and SAHA.
as §5, §6, §7

U251 = assay: Anti-cancer screen (MTT), U251; format: cell-based; conditions: Homo sapiens, U-251, 48 hours
Description: as §3, §4, §5, §6, §7

| Structure (SMILES) | GI50 (HCT116) | GI50 (NCI-H460) | GI50 (U251) | other results |
| --- | --- | --- | --- | --- |
| CSc1ccc(-c2nc(O)c(C(=O)Nc3ccc(C)cc3)c(SC)n2)cc1 [Example 1, 4-Hydroxy-N-(4-methylphenyl)-6-(methylthio)-2-[4-(methylthio)phenyl]pyrimidine-5-carboxamide] |  |  |  | melting point: 302 to 305 °C |
| CSc1ccc(-c2nc(O)c(C(=O)Nc3ccc(C)c(C)c3)c(SC)n2)cc1 [Example 2, 4-Hydroxy-N-(3,4-dimethylphenyl)-6-(methylthio)-2-[4-(methylthio)phenyl]pyrimidine-5-carboxamide] |  |  |  | melting point: 303 to 305 °C |
| CNc1nc(-c2cccnc2)nc(NC)c1C(=O)Nc1ccc(C)c(C)c1 [Example 7, N-(3,4-Dimethylphenyl)-4,6-bis(methylamino)-2-pyridin-3-ylpyrimidine-5-carboxamide] |  |  |  | melting point: 285 to 286 °C; inhibition at 10 µM (IL-6): 53.8%; inhibition at 0.1 µM (TNF-α): 30.4%; IL-1β Inhibition (%) (IL-1β; Conc. 10 μM): Not active |
| CCc1ccc(NC(=O)c2c(NC)nc(-c3ccc(S(N)(=O)=O)cc3)nc2NC)cc1 [Example 16, 2-[4-(Aminosulfonyl)phenyl]-4,6-bis(methylamino)-N-(4-ethylphenyl)pyrimidine-5-carboxamide] |  |  |  | inhibition at 10 µM (TNF-α; at 10 μM): 53.1% |
| CCc1ccc(NC(=O)c2c(NC)nc(-c3ccc(S(N)(=O)=O)cc3)nc2SC)cc1 [Example 17, 2-[4-(Aminosulfonyl)phenyl]-N-(4-ethylphenyl)-4-(methylamino)-6-(methylthio)pyrimidine-5-carboxamide] |  |  |  | inhibition at 0.1 µM (TNF-α): 30.1% |
| CNc1nc(-c2ccncc2)nc(SC)c1C(=O)Nc1ccc(F)cc1 [Example 18, N-(4-Fluorophenyl)-4-(methylamino)-6-(methylthio)-2-pyridin-4-ylpyrimidine-5-carboxamide] | 1.2 µM | 2000 nM |  |  |
| CNc1nc(-c2ccc(SC)cc2)nc(SC)c1C(=O)Nc1ccc(OC)cc1 [Example 20, 4-(Methylamino)-N-(4-methoxyphenyl)-6-(methylthio)-2-[4-(methylthio)phenyl]pyrimidine-5-carboxamide] |  | 3200 nM |  |  |
| CCc1ccc(NC(=O)c2c(NC)nc(-c3ccncc3)nc2SC)cc1 [Example 21, N-(4-Ethylphenyl)-4-(methylamino)-6-(methylthio)-2-pyridin-4-ylpyrimidine-5-carboxamide] | 9.5 µM | 400 nM |  |  |
| CNc1nc(-c2ccncc2)nc(SC)c1C(=O)Nc1ccc(C)cc1 [Example 24, 4-(Methylamino)-N-(4-methylphenyl)-6-(methylthio)-2-pyridin-4-ylpyrimidine-5-carboxamide] | 9.9 µM | 4000 nM |  |  |
| CSc1ccc(-c2nc(NCCO)c(C(=O)Nc3ccc(C)c(C)c3)c(SC)n2)cc1 [Example 32, N-(3,4-Dimethylphenyl)-4-[(2-hydroxyethyl)amino]-6-(methylthio)-2-[4-(methylthio)phenyl]pyrimidine-5-carboxamide] | 4 µM |  | 3000 nM |  |
| CNc1nc(-c2ccncc2)nc(SC)c1C(=O)Nc1ccc(C(C)C)cc1 [Example 34, N-(4-Isoproylphenyl)-4-(methylamino)-6-(methylthio)-2-pyridin-4-ylpyrimidine-5-carboxamide] | 9 µM | 900 nM |  |  |
| CCCCc1ccc(NC(=O)c2c(NC)nc(-c3ccc(SC)cc3)nc2SC)cc1 [Example 36] |  | 3000 nM | 1800 nM | inhibition at 0.1 µM (IL-6; Conc. 0.1 μM): 26.6%; IL-1β Inhibition (%) (IL-1β; Conc. 0.1 μM): Not active |
| CNc1nc(-c2ccc(SC)cc2)nc(SC)c1C(=O)Nc1ccc(C)cc1C [Example 39, N-(2,4-Dimethylphenyl)-4-(methylamino)-6-(methylthio)-2-[4-(methylthio)phenyl]pyrimidine-5-carboxamide] |  | 2000 nM | 90 nM |  |
| CCOc1ccc(NC(=O)c2c(NC)nc(-c3ccc(SC)cc3)nc2SC)cc1 [Example 40, N-(4-Ethoxyphenyl)-4-(methylamino)-6-(methylthio)-2-[4-(methylthio)phenyl]pyrimidine-5-carboxamide] | 2 µM | 500 nM | 100 nM | inhibition at 10 µM (IL-6): 61.5%; IL-1β Inhibition (%) (IL-1β; Conc. 10 μM): Not active |
| CSc1ccc(-c2nc(SC)c(C(=O)Nc3ccc(C)c(C)c3)c(N3CCNCC3)n2)cc1 [Example 42, N-(3,4-Dimethylphenyl)-6-(methylthio)-2-[4-(methylthio)phenyl]-4-piperazin-1-ylpyrimidine-5-carboxamide] | 4 µM | 3000 nM | 5000 nM | inhibition at 10 µM (IL-6): 92.2%; IL-1β Inhibition (%) (IL-1β; Conc. 10 μM): Not active |
| CNc1nc(-c2ccc(F)cc2)nc(SC)c1C(=O)Nc1ccc(SC)cc1 [Example 45, 2-(4-Fluorophenyl)-4-(methylamino)-6-(methylthio)-N-[4-(methylthio)phenyl]pyrimidine-5-carboxamide] |  | 400 nM | 700 nM |  |
| CSc1nc(-c2ccncc2)nc(NCCO)c1C(=O)Nc1ccc(Br)cc1 [Example 46, N-(4-Bromophenyl)-4-[(2-hydroxyethyl)amino]-6-(methylthio)-2-pyridin-4-ylpyrimidine-5-carboxamide] |  | 200 nM | 200 nM |  |
| CSc1nc(-c2ccncc2)nc(NCCO)c1C(=O)Nc1ccc(Cl)cc1 [Example 47, N-(4-Chlorophenyl)-4-[(2-hydroxyethyl)amino]-6-(methylthio)-2-pyridin-4-ylpyrimidine-5-carboxamide] |  | 100 nM | 300 nM |  |
| CSc1ccc(-c2nc(NN)c(C(=O)Nc3ccc(C)c(C)c3)c(SC)n2)cc1 [Example 48, N-(3,4-Dimethylphenyl)-4-hydrazino-6-(methylthio)-2-[4-(methylthio)phenyl]pyrimidine-5-carboxamide] | 2.5 µM | 5000 nM | 3000 nM |  |
| CNc1nc(-c2ccc(N(C)C)cc2)nc(SC)c1C(=O)Nc1ccc(OC)cc1 [Example 57, 2-[4-(Dimethylamino)phenyl]-4-(methylamino)-N-(4-methoxyphenyl)-6-(methylthio)pyrimidine-5-carboxamide] |  | 7000 nM | 4000 nM |  |
| CNc1nc(-c2cccnc2)nc(SC)c1C(=O)Nc1ccc(OC)cc1.O=P(O)(O)O [Example 59, N-(4-Methoxyphenyl)-4-(methylamino)-6-(methylthio)-2-pyridin-3-ylpyrimidine-5-carboxamide orthophosphoric acid salt] |  |  |  | melting point: 222 to 225 °C |
